The term pIC50 denotes the negative decadic logarithm of the IC50, by convention in mol/L.

pIC50: −log10 of the molar value. Where “and” joins values, the source holds several entries; their conditions need not be identical. Equal values may be shown once. Calls of active or inactive are those of the source.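 The calls were made as follows: active = over 50% block of the Kir2.1 potassium channel by compound at 30 µM; inactive = the rest.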

This is an account of results in PubChem BioAssay AID624350 (Johns Hopkins Ion Channel Center, 2012).

The target in the experiment is Inward rectifier potassium channel 2 (Mus musculus) (UniProt P35561). Nature of the experiment: Kir2.1 potassium channel inhibitors, dose response, cell-based, HEK293, thallium flux, FluxOR fluorescence (AID 624350). To be noted: HEK293 Kir2.1, FluxOR thallium flux fluorescence, 20 min.
Chain of Inward rectifier potassium channel 2 (Mus musculus) (P35561 whole entry, looked up): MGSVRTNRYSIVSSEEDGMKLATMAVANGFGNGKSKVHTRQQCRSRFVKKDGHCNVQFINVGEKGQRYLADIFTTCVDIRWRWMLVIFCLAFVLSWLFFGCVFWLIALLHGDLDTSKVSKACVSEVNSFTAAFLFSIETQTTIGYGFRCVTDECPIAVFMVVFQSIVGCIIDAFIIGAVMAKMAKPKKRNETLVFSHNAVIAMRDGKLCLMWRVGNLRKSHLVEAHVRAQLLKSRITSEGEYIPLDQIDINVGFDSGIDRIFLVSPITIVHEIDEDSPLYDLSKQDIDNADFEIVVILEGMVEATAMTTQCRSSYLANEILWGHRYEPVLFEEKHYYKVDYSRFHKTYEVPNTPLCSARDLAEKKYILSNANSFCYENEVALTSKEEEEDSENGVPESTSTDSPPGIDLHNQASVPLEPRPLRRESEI

Turning to `COc1ccc(CCNS(=O)(=O)c2ccc(Br)cc2)cc1OC`, the outcome was inactive.
Same read-out and setting: the entry for `COCc1nc2ccccc2n1CC(C)C` is “inactive”.
As to `O=S(=O)(NCc1ccc(F)cc1F)c1ccc(Br)cc1`, the pIC50 was 4.79.
For the molecule `Cc1ccc(C)c(OCCCNC[C@@H](C)O)c1`, the IC50 entry is “inactive”.
Take `O=S(=O)(NCc1cc(F)cc(F)c1)c1ccc(Br)cc1`: the pIC50 is 4.81.
As to `O=S(=O)(NCc1ccncc1)c1ccc(Br)cc1`, the result was inactive.
For the molecule `Cc1ccc(C)c(OCCCNCc2cccc3ccccc23)c1`, the pIC50 was 4.95.
As for `COCc1nc2ccccc2n1Cc1ccccc1`, the result was inactive.
As to `O=S(=O)(c1cccc(F)c1)N1CCCc2ccccc21`, the pIC50 was 4.90.
Regarding `Cc1ccc(C)c(OCCCN(C)Cc2ccccc2)c1`, the pIC50 was 4.92.
Same read-out and setting: then `Cc1ccc(C)c(OCCCNCc2ccccc2)c1`, with 5.05.
With `O=S(=O)(NCc1ccc(F)c(F)c1)c1ccc(Br)cc1`, the pIC50 is 4.95.
Take `O=S(=O)(NCCc1ccccc1)c1ccc(Br)cc1`: the result was inactive.
On to `C[C@@H](NS(=O)(=O)c1ccc(Br)cc1)c1cccc2ccccc12`, for which the pIC50 is 5.02.
Same read-out and setting: then `O=S(=O)(c1ccc(F)cc1)N1CCCc2ccccc21`, with 4.92.
The same measure, in the same setting: the figure for `Cc1ccc(C)c(OCCCNCCc2ccccc2)c1` is 4.97.
In the case of `O=S(=O)(c1ccc(Br)cc1)N1CCC(c2ccccc2)CC1`, the result was inactive.
As for `Cc1ccc(C)c(OCCCNCc2ccc(Cl)c(Cl)c2)c1`, the pIC50 was 4.87.
Regarding `Cc1ccc(C)c(OCCCNC[C@H](C)O)c1`, the result was inactive.
The same measure, in the same setting: then `Cc1ccc(C)c(OCCCOCc2ccccc2)c1`, with “inactive”.
Regarding `O=S(=O)(NCc1cccnc1)c1ccc(Br)cc1`, the outcome was inactive.
For the molecule `O=S(=O)(NCCc1c[nH]c2ccccc12)c1ccc(Br)cc1`, the pIC50 is 4.87.
Regarding `Cc1ccc(C)c(OCCCN2CCCCC2)c1`, the outcome was inactive.
Same read-out and setting: then `Cc1ccc(C)c(OCCCNc2ccccc2)c1`, with “inactive”.
For the molecule `O=S(=O)(c1ccccc1F)N1CCCc2ccccc21`, the negative-log IC50 (pIC50) is 4.95.
On the same count and under the same terms, the figure for `O=[N+]([O-])c1ccc(CNS(=O)(=O)c2ccc(Br)cc2)cc1` is 4.75; for `Cc1ccc(C)c(OCCCNCC2CCCCC2)c1` it is 4.72.
Turning to `O=S(=O)(NCC(c1ccccc1)c1ccccc1)c1ccc(Br)cc1`, the outcome was inactive.
For `C[C@H](NC(=O)c1ccc(Br)cc1)c1ccccc1`, the result was inactive.
For `C[C@@H](NC(=O)c1ccc(Br)cc1)c1ccccc1`, the result was inactive.
Still for that read-out and setting: then `CCN(CC)CCCOc1cc(C)ccc1C`, with “inactive”; and `O=S(=O)(NCc1ccccn1)c1ccc(Br)cc1`, with “inactive”.
Still for that read-out and setting: then `Cc1ccc(C)c(OCCCN(C)CCO)c1`, with “inactive”.
On the same count and under the same terms, the entry for `Cc1ccc(C)c(OCCCN2CCOCC2)c1` is “inactive”; for `COCc1nc2ccccc2n1-c1ccccc1` it is “inactive”; for `COCc1nc2ccccc2n1CCN1CCOCC1` it is “inactive”.
`Cc1ccc(C)c(OCCCNCCO)c1`: the outcome was inactive.
In the case of `CCN(Cc1ccncc1)S(=O)(=O)c1ccc(Br)cc1`, the pIC50 is 4.64.
On to `O=S(=O)(NC1Cc2ccccc2C1)c1ccc(Br)cc1`, for which the negative logarithm of the IC50 (pIC50) was 4.55.
Same read-out and setting: the figure for `O=S(=O)(c1ccc(Br)cc1)N1CCc2ccccc21` is 4.75.
With `O=S(=O)(N[C@H]1c2ccccc2C[C@H]1O)c1ccc(Br)cc1`, the result was inactive.
With `Cc1ccc(C)c(OCCCNCc2ccco2)c1`, the IC50 entry was “inactive”.
For `O=S(=O)(c1ccccc1Br)N1CCCc2ccccc21`, the pIC50 is 5.00.
For `O=S(=O)(NCc1ccco1)c1ccc(Br)cc1`, the result was inactive.
Take `O=C(c1ccc(F)cc1)N1CCCc2ccccc21`: the result was inactive.
In the case of `COCc1nc2ccccc2n1C1CC1`, the outcome was inactive.
With `c1ccc(Cc2nc3ccccc3n2-c2ccccc2)cc1`, the pIC50 was 4.82.
`COc1ccc(N2CCN(S(=O)(=O)c3ccc(Br)cc3)CC2)cc1`: the outcome was inactive.
Same read-out and setting: the entry for `O=S(=O)(NCc1ccccc1)c1ccc(Br)cc1` is “inactive”.
Take `O=S(=O)(c1ccc(Br)cc1)N1CCN(c2ccc(Cl)c(Cl)c2)CC1`: the result was inactive.
Consider `CC(C)Cn1c(Cc2ccccc2)nc2ccccc21`, for which the pIC50 is 4.55.
For `O=S(=O)(c1ccc(Br)cc1)N1CCCc2ccccc21`, the pIC50 was 4.80 and 4.87.
On to `O=S(=O)(c1ccc(Br)cc1)N1CCCCC1`, for which the result was inactive.
Still for that read-out and setting: then `CN1CCN(S(=O)(=O)c2ccc(Br)cc2)CC1`, with “inactive”; and `C[C@@H](c1ccccc1)N(Cc1ccccc1)S(=O)(=O)c1ccc(Br)cc1`, with “inactive”.
Still for that read-out and setting: then `c1ccc(Cc2nc3ccccc3n2C2CC2)cc1`, with “inactive”; and `O=S(=O)(NCc1cccc2ccccc12)c1ccc(Br)cc1`, with “inactive”.
As for `COc1ccccc1CCNS(=O)(=O)c1ccc(Br)cc1`, the negative-log IC50 (pIC50) is 5.11.
Turning to `O=S(=O)(NCc1cccc(F)c1)c1ccc(Br)cc1`, the result was inactive.
Consider `O=S(=O)(c1cccc(Br)c1)N1CCCc2ccccc21`, for which the pIC50 was 4.90.
`CN(Cc1ccccc1)S(=O)(=O)c1ccc(Br)cc1`: the outcome was inactive.
On to `c1ccc(Cc2nc3ccccc3n2Cc2ccccc2)cc1`, for which the negative-log IC50 (pIC50) was 4.52.
